# Data from patent US4001223A, “Adamantane-piperazine derivatives” (Idemitsu Kosan Co., Ltd., priority 1975, dated 1977).
# “Also recorded” adds a separate entry of the source.
# How the values were obtained:
# Hypotensive action = assay type: in vivo; conditions: for dose showing hypotensive action: in vivo
# [1] = Effect on cerebral blood flow in cats; assay type: in vivo; conditions: cats weighing about 3 kg
# Excerpt: (§1) The action on cerebral blood flow and muscular blood flow was examined with cats weighing about 3 kg.
# [2] = Effect on muscular blood flow in cats; assay type: in vivo; conditions: cats weighing about 3 kg
# Excerpt: as §1
# [3] = tested on: Vessels excised from guinea-pigs; test: Inhibition of adrenalin-induced contraction of isolated smooth muscle (vessels excised from guinea-pigs); conditions: contracting substance Adrenalin 2.86×10^-6 g/ml; effective concentration 1×10^-5 g/ml
# [4] = tested on: Small intestine excised from guinea-pigs; test: Inhibition of histamine-induced contraction of isolated smooth muscle (small intestine excised from guinea-pigs); conditions: contracting substance Histamine 1.00×10^-7 g/ml; effective concentration 1×10^-4 g/ml
# [5] = tested on: Small intestine excised from guinea-pigs; test: Inhibition of BaCl2-induced contraction of isolated smooth muscle (small intestine excised from guinea-pigs); conditions: contracting substance BaCl2 2.00×10^-3 g/ml; effective concentration 1×10^-4 g/ml
# [6] = tested on: Small intestine excised from guinea-pigs; test: Inhibition of acetylcholine-induced contraction of isolated smooth muscle (small intestine excised from guinea-pigs); conditions: contracting substance Acethylcholine 5.43×10^-4 g/ml; effective concentration 8.75×10^-6 g/ml
# isolated smooth muscle = test: Effect on contraction of isolated smooth muscle, overall; set-up: species or system guinea-pigs
# in vivo = conditions: for LD50: mouse, in vivo
# [7] = Solubility in aqueous solution of tartaric acid (aptitude test as an injection); assay type: physicochemical; conditions: 0.25 weight percent
# Description: For the purpose of examining the solubility of the new compound N-(1-adamantyl methyl)-N'-cinnamyl piperazine in an aqueous solution of tartaric acid, the aqueous solutions in which 2, 4, 6 and 8 times molar of tartaric acid based on 1 mol of the new compound were contained were prepared and the compound was added so that its concentration should be 0.25 weight percent to each aqueous solution. Each aqueous solution was heated to 80° C and allowed to cool to a room temperature (about 20° C), then the solubility was evaluated. […] In addition, the pH value of 0.25 weight percent aqueous solution of the compound prepared by using 2 times mol of tartaric acid based on 1 molar of the compound was 3.10 and when an alkali was added to the aqueous solution, crystals began to separate at pH 3.80.
# [8] = Stability in aqueous solution of tartaric acid; assay type: physicochemical
# Description: After heating a 0.25 weight percent aqueous solution of the new compound N-(1-adamantyl methyl)-N'-cinnamyl piperazine prepared by using 2 times mol of tartaric acid based on 1 mol of this compound, the solution was allowed to cool to a room temperature (about 20° C). Then, the pH value was adjusted to 8-9 with 1/10 N aqueous solution of sodium hydroxide.
# [9] = 0.25 weight percent, 2 times mol tartaric acid, heated, cooled, pH adjusted to 8-9, room temperature for 7 days
smiles,measurement,setting,value
"C(=C\c1ccccc1)/CN1CCN(C(c2ccccc2)c2ccccc2)CC1 [Cinnarizine, reference compound]",dose showing hypotensive action,Hypotensive action,0.5 mg/kg
C(=C\c1ccccc1)/CN1CCN(CC23CC4CC(CC(C4)C2)C3)CC1 [N-(1-adamantylmethyl)-N'-cinnamyl piperazine],blood flow of cerebral cortex,[1]; 1 mg/kg,clearly increased blood flow of cerebral cortex
same,action on blood flow of cerebral cortex compared with Cinnarizine,[1]; versus Cinnarizine 1 mg/kg,more significant than that induced by Cinnarizine
same,blood flow of gastrocnemius muscle,[2],clearly increased blood flow of gastrocnemius muscle
same,action on blood flow of gastrocnemius muscle compared with Cinnarizine,[2]; versus Cinnarizine,more significant than that of Cinnarizine
same,side effects such as an excessive hypotension,Hypotensive action; general statement,little side effects such as an excessive hypotension
same,dose showing hypotensive action,Hypotensive action,> 5 mg/kg
same,hypotensive action compared with Cinnarizine,Hypotensive action; versus Cinnarizine,clearly weaker than that of Cinnarizine
same,Inhibitory rate,[3],3.10%
same,Inhibitory rate,[4],95.0%
same,Inhibitory rate,[5],77.23%
same,Inhibitory rate,[6],25.0%
same,smooth muscle relaxing action,isolated smooth muscle,recognized to possess smooth muscle relaxing action
same,toxicity,in vivo; general statement,low toxicity; also recorded: very low toxicity compared with conventional cerebral vasodilators
same,LD50,in vivo; iv,78.8 mg/kg
same,LD50,in vivo; po,> 10000 mg/kg
same,pH value of aqueous solution,[7]; 2 times mol of tartaric acid,3.10
same,pH at which crystals began to separate,"[7]; 2 times mol of tartaric acid, alkali added",3.80
same,solubility,"[7]; aqueous tartaric acid, 2, 4, 6 and 8 times molar, heated to 80° C, cooled to about 20° C",soluble in all of the above aqueous solutions of tartaric acid
same,change in infrared absorption spectrum and nuclear magnetic resonance spectrum,[8]; [9],No change
same,stability by thin layer chromatography,[8]; [9],unaffected
same,"stability against heat, alkali and acid",[8]; general statement,"good stability against heat, alkali and acid; also recorded: high stability against heat, alkali and acid"
same,stability in an aqueous solution of tartaric acid,[8]; overall conclusion,exist stably in an aqueous solution of tartaric acid
